According to US20230159436A1, “APPLICATIONS OF AMIDE ANALOGS OF TRITERPENES IN CURES OF CANCER AND OTHER DISEASES” (Pacific Arrow Limited, priority 2021, published 2023):

Tests used:
[1] = system: cancer growth, cancer invasion, cells invasion or cancer cell invasion; assay: Inhibition of cancer growth and invasion (anti-cancer activity); assay type: cell-based
Source text: The program is based on the purification methods and biological assays including the MTT assay as described in International Application No. PCT/US05/31900, filed Sep. 7, 2005, U.S. Ser. No. 11/289,142, filed Nov. 28, 2005, and U.S. Ser. No. 11/131,551, filed May 17, 2005, and PCT/US2008/002086, 1188-ALA-PCT, filed Feb. 15, 2008, Ser. No. 12/344,682, 1020-B1-US, filed Dec. 29, 2008, US009499577B2, filed Jun. 24, 2014. The details of Analysis of gene expression of ES2 cells after Y-treatment by Microarray, Data Analysis Methods and Western blot in PCT/US2008/002086, 1188-ALA-PCT, filed Feb. 15, 2008, and the cell invasion experiments methods in International Application PCT/US2010/0042240, filed Jul. 16, 2010.

[2] = system: U2OS, H460, HTB-9, ES2, HCT116, Capan, OVCAR3, DU145, SK-Mel-5, KB, A498, MCF-7, HepG2, T98G, K562, HeLa; assay: MTT Cytotoxic Assay of reaction products and isolated compounds; assay type: cell-based
Source text: The peaks, fractions and compounds are selected according to the activities of times studies and the changes of peaks. Selecting the HPLC fractions for isolation is according to the cytotoxic activity of the reaction product obtained at a specific time. The compounds having strong to weak activities are selected and isolated. Selecting the HPLC fractions for isolation may be according to the cytotoxic activity of times studies and the change of peaks. The anti cancer activities are the MTT studies of bone (U2OS), lung (H460), bladder (HTB-9), ovary (ES2), colon (HCT116), pancreas (Capan), ovary (OVCAR3), prostate (DU145), skin (SK-Mel-5), mouth (KB), kidney (A498), breast (MCF-7), liver (HepG2), brain (T98G), luekemia (K562), cervix (HeLa).
Esterification, amidation, amination, or sulfonamidation of compound (A), (B), (C), (D1), (D2), (E), (F), (G), (H1), (H2), E4A, E4A2Y, E4D, E4D1, (P1), P(2), terpene, isoprene, triterpenes, hydroxylated triterpenes, with acyl halide, wherein the halide comprise chloride, bromide, fluoride and iodide, wherein the acyl halide comprise acyl chloride, wherein acyl chloride comprise tigloyl chloride, angeloyl chloride, acetyl chloride, crotonoyl chloride, 3,3-dimethylartyloyl chloride, senecioyl chloride, cinnamoyl chloride, pentenoyl chloride, hexanoyl chloride, benzoyl chloride, ethylbutyryl chloride, propionyl chloride, 2-propenoyl chloride, isobutyryl chloride, butyryl chloride, (2E)-2-pentenoyl chloride, 4-Pentenoyl chloride, 5-hexenoyl chloride, heptanoyl chloride, octanoyl chloride, nonanoyl chloride, decanoyl chloride, Lauroyl chloride, myristoyl chloride, oleoyl chloride. The compounds vary in composition when the time or temperature of the reaction is changed. The peaks, fractions and compounds are selected according to the activities of times studies and the changes of peaks. The compounds having strong to weak activities are selected and isolated. The anti cancer activities (Cytotoxic Assay) are the MTT studies of bone (U2OS), lung (H460), bladder (HTB-9), ovary (ES2), colon (HCT116), pancreas (Capan), ovary (OVCAR3), prostate (DU145), skin (SK-Mel-5), mouth (KB), kidney (A498), breast (MCF-7), liver (HepG2), brain (T98G), luekemia (K562), cervix (HeLa). The active esterification, amidation, amination, or sulfonamidation products are purified with HPLC. The reaction product of mixtures and individual compounds are tested with MTT Cytotoxic Assay. Details of method are in Experiment 3 of the present application. A second esterification of compound can be selected from the above experiment results to produce new active compounds. A partial esterification compound is selected from the above experiments to perform a second or repeated with a third esterification with different acyl chloride in order to produce new active compounds with the experiments in the present application. The active compounds of this invention are triterpenes in form of amine, sulfonamides, amide, and urea analogs, providing extremely stable activity in solution. They prolong the activities and duration of drug in a subject.
Cells. HTB-9 (bladder), HeLa-S3 (cervix), DU145 (prostate), H460 (lung), MCF-7 (breast), K562 (leukemia), HCT116 (colon), HepG2 (liver), U2OS (bone), T98G (brain), SK-MEL-5 (Skin) and OVCAR 3, ES2 (ovary), Pancreas (Capan), Mouth (KB), Kidney (A498).
MTT Assay. The procedure for MTT assay followed the method described by Carmichael et al. (1987) with modifications. The cells were seeded into a 96-well plate at for 24 hours before drug-treatment. The cells were then exposed to the drugs for 48, 72, or 96 hours. After the drug-treatment, MTT (0.5 mg/mL) was added to cultures and incubated for an hour. The formazan (product of the reduction of tetrazolium by viable cells) formed and was dissolved with DMSO and the O.D. at 490 nm, and was measured by an ELISA reader. The MTT level of the cells before drug-treatment was also measured (T0). […]

SMILES: CC1O[C@@H](O[C@H]2C(O)[C@@H](O)C(C)O[C@H]2O[C@H]2C(O)[C@@H](O)C(CO)O[C@H]2OC2[C@H](O)C(C(=O)O)O[C@@H](O[C@H]3CC[C@@]4(C)C(CC[C@]5(C)C4CC[C@]46O[C@H](O)[C@]7(C4CC(C)(C)[C@@H](O)[C@@H]7O)[C@H](O)C[C@]65C)C3(C)C)[C@H]2O[C@@H]2OC(CO)[C@H](O)C(O)[C@@H]2O)[C@@H](O)C(O)[C@H]1O (stereo partly drawn) [AKOH-M10, reference compound]
- inhibiting cancer growth, cancer invasion, cells invasion or cancer cell invasion [1]: do not show the ability

SMILES: CC1(C)CC2C3=CCC4[C@@]5(C)CC[C@H](O[C@@H]6OC(C(=O)O)[C@@H](O)C(O[C@@H]7O[C@@H](CO)C(O)[C@@H]7O)[C@@H]6O[C@@H]6OC(CO)[C@H](O)C(O)[C@@H]6O)C(C)(C)C5CC[C@@]4(C)[C@]3(C)[C@@H](O)[C@@H](O)[C@@]2(CO)[C@@H](O)[C@@H]1O (stereo partly drawn) [AKOH-Y, reference compound]
- inhibiting cancer growth, cancer invasion, cells invasion or cancer cell invasion [1]: do not show the ability

SMILES: C=CC(=O)NCC1(C)C(O)CCC2(C)C1CCC1(C)C2CC=C2C3CC(C)(C)C(O)C(O)C3(CNC(=O)C=C)C(O)CC21C (stereo not drawn) [MM2]
- Cytotoxicity activity [2]: strong

SMILES: C=CC(=O)NCC1(C)C(N)CCC2(C)C1CCC1(C)C2CC=C2C3CC(C)(C)C(NC(=O)C=C)C(N)C3(CN)C(N)CC21C (stereo not drawn) [MM3]
- Cytotoxicity activity [2]: moderate

SMILES: C=CC(=O)NCC1(C)C(N)CCC2(C)C1CCC1(C)C2CC=C2C3CC(C)(C)C(NC(=O)C=C)C(N)C3(CNC(=O)C=C)C(N)CC21C (stereo not drawn) [MM4]
- Cytotoxicity activity [2]: weak

SMILES: CC(C)C(=O)NCC1(C)C(N)CCC2(C)C1CCC1(C)C2CC=C2C3CC(C)(C)C(N)C(N)C3(CNC(=O)C(C)C)C(N)CC21C (stereo not drawn) [NN1]
- Cytotoxicity activity [2]: moderate

SMILES: CC(C)C(=O)NCC1(C)C(O)CCC2(C)C1CCC1(C)C2CC=C2C3CC(C)(C)C(O)C(O)C3(CNC(=O)C(C)C)C(O)CC21C (stereo not drawn) [NN2]
- Cytotoxicity activity [2]: strong

SMILES: CC(C)C(=O)NCC1(C)C(N)CCC2(C)C1CCC1(C)C2CC=C2C3CC(C)(C)C(NC(=O)C(C)C)C(N)C3(CN)C(N)CC21C (stereo not drawn) [NN3]
- Cytotoxicity activity [2]: moderate

SMILES: CC(C)C(=O)NCC1(C)C(N)CCC2(C)C1CCC1(C)C2CC=C2C3CC(C)(C)C(NC(=O)C(C)C)C(N)C3(CNC(=O)C(C)C)C(N)CC21C (stereo not drawn) [NN4]
- Cytotoxicity activity [2]: weak

SMILES: CCCC(=O)NCC1(C)C(N)CCC2(C)C1CCC1(C)C2CC=C2C3CC(C)(C)C(N)C(N)C3(CNC(=O)CCC)C(N)CC21C (stereo not drawn) [PP1]
- Cytotoxicity activity [2]: moderate

SMILES: CCCC(=O)NCC1(C)C(O)CCC2(C)C1CCC1(C)C2CC=C2C3CC(C)(C)C(O)C(O)C3(CNC(=O)CCC)C(O)CC21C (stereo not drawn) [PP2]
- Cytotoxicity activity [2]: strong

SMILES: CCCC(=O)NCC1(C)C(N)CCC2(C)C1CCC1(C)C2CC=C2C3CC(C)(C)C(NC(=O)CCC)C(N)C3(CN)C(N)CC21C (stereo not drawn) [PP3]
- Cytotoxicity activity [2]: moderate

SMILES: CCCC(=O)NCC1(C)C(N)CCC2(C)C1CCC1(C)C2CC=C2C3CC(C)(C)C(NC(=O)CCC)C(N)C3(CNC(=O)CCC)C(N)CC21C (stereo not drawn) [PP4]
- Cytotoxicity activity [2]: weak

SMILES: CCC=CC(=O)NCC1(C)C(N)CCC2(C)C1CCC1(C)C2CC=C2C3CC(C)(C)C(N)C(N)C3(CNC(=O)C=CCC)C(N)CC21C (stereo not drawn) [QQ1]
- Cytotoxicity activity [2]: moderate

SMILES: CCC=CC(=O)NCC1(C)C(O)CCC2(C)C1CCC1(C)C2CC=C2C3CC(C)(C)C(O)C(O)C3(CNC(=O)C=CCC)C(O)CC21C (stereo not drawn) [QQ2]
- Cytotoxicity activity [2]: strong
